Measurements from article PMC6152156 (Molecules : A Journal of Synthetic Chemistry and Natural …, 2017).

Columns and labels:
[1] = molecular target: T1, BuChE (Homo sapiens, UniProt P06276); assay: BuChE kinetic study (Lineweaver-Burk and Dixon plots); type: biochemical
T1 construct: BuChE was obtained from human plasma (purchased from Beijing Red Cross Blood Center China); tissue Beijing Red Cross Blood Center China; host or cells: human plasma, diluted 200-fold with 0.05 M PBS
Procedure: (§1) To have an insight into how structure modification affected the inhibitory activities, molecular docking and kinetics studies were performed for DL0410, compounds 6-1 and 7-6. After the docking parameters were set, the crystal poses of donepezil and N-((1-benzylpiperidin-3-yl)methyl)-N-(2-methoxyethyl) naphthalene-2-sulfonamide were first re-docked into the binding site pocket of AChE and BuChE, respectively. Donepezil is a mixed-type inhibitor of AChE used in the palliative treatment of AD [25]. N-((1-benzylpiperidin-3-yl)methyl)-N-(2-methoxyethyl) naphthalene-2-sulfonamide is a potent, selective, and reversible human BuChE inhibitor, which can improve memory, cognitive functions, and learning abilities. The root mean square deviation (RMSD) values between the docking and initial poses were 0.872 and 1.253, respectively, which implied that the docking models built by CDOCKER could reproduce the crystal binding model and were suitable for the AChE and BuChE system. DL0410 and two highly inhibitory compounds (compounds 6-1 and 7-6) were docked to the active pockets of AChE and BuChE. For AChE, these three compounds could dock to TRP86 of CAS via π-Alkyl interaction or electrostatic attraction, near the bottom of the active site gorge, and TRP286 of PAS via π-π stacking interaction, near its entrance (Figure 4). The value of –CDOCKER INTERACTION ENERGY was followed by compound 6-1 > compound 7-6 > DL0410. The dibenzofuran of compound 6-1 formed stronger π-π stacking interaction with TYR341 and TRP286, and the carbonyl formed hydrogen bond with TYR72. In addition, hydrogen bond interaction of compound 7-6 made it high inhibition for AChE. […] There existed more hydrogen bonds for compound 7-6, and a highly electronegative fluorine atom caused its strong interaction with GLY116. Therefore, the fluorine atom substitution and the structure of dibenzofuran made compounds 6-1 and 7-6 different from DL0410. Compound 7-6 formed more hydrogen bonds with AChE and BuChE. The structure of dibenzofuran caused the extension direction of compound 6-1 to change, which was more conducive to forming electrostatic attractive interactions. In silico results were consistent with the kinetics studies of AChE and BuChE. […] The inhibition kinetic data were analyzed by Lineweaver-Burk and Dixon plots. The Lineweaver-Burk plot provides a useful means of distinguishing among competitive inhibition, non-competitive inhibition, and mixed inhibition, whereas the merit of the Dixon plot is that one can expediently determine Ki from the kinetic data. […] The results of the kinetics studies also validated that the three compounds were, indeed, capable of binding to CAS and PAS of AChE/BuChE. The PAS site could […] their catalytic efficiency, which led to high inhibitory effects.
(§2) Figure 6 The Lineweaver-Burk plots of DL0410, compound 6-1 and compound 7-6 on AChE inhibitory activity (A–C). The Lineweaver-Burk plots of DL0410, compound 6-1 and compound 7-6 on BuChE inhibitory activity (D–F). Kinetic analysis of AChE and BuChE was performed by using three effective concentrations of DL0410, compound 6-1 and compound 7-6 (0.1, 0.3, 1 μM for AChE, and 0.3, 1, 3 μM for BuChE) with the incubation of five different substrate concentrations (1.25, 2.5, 5, 10, 20 mM for AChE, and 2, 4, 8, 16, 32 mM for BuChE). […] (n = 3; a = mM^−1; b = min/ΔA).
(§3) Figure 7 Ki values were determined by Dixon plots. […] Figure D–F presented the Dixon plots of DL0410, compound 6-1 and compound 7-6 on BuChE inhibitory activity, respectively. […] (n = 3; b = min/ΔA).
(§4) It is important to determinate the type of inhibition in an effort to understand the mechanism of inhibition and the binding sites of the inhibitor sites. […]

[2] = molecular target: T2, AChE (Rattus norvegicus, UniProt P37136); assay: AChE kinetic study (Lineweaver-Burk and Dixon plots); type: biochemical
T2 construct: AChE was derived from the SD rat brains by homogenizing the brain with 20-fold saline solution; from tissue; host or cells: SD rat brain homogenate (supernatant after 800 x g)
T2 sequence (P37136 32-614): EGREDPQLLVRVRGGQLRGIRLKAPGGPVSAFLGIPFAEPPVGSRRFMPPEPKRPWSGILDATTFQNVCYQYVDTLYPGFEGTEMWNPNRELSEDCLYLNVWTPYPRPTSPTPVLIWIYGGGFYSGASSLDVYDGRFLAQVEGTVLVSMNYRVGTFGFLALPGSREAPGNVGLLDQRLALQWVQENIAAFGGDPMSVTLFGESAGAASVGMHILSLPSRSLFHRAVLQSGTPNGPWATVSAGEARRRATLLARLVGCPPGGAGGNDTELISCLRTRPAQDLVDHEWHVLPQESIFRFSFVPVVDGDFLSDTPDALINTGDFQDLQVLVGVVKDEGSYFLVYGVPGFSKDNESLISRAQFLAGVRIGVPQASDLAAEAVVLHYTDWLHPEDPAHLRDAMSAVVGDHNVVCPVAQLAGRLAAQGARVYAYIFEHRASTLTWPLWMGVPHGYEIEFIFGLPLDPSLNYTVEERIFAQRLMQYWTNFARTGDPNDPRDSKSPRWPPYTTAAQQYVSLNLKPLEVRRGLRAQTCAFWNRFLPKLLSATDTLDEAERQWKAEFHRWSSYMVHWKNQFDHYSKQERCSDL
Procedure: as §1, §2, §3, §4

[3] = test system: APPsw-SY5Y cells; details: Akt/JNK signaling pathway; cited from earlier work
[4] = test system: APP/PS1 transgenic mice; set-up: method as in PMID 26476132; details: cited from earlier work
[5] = test system: Aβ-treated mice; set-up: method as in PMID 27498773; details: Aβ-treated mice model; cited from earlier work

T1 sequence (P06276 29-602): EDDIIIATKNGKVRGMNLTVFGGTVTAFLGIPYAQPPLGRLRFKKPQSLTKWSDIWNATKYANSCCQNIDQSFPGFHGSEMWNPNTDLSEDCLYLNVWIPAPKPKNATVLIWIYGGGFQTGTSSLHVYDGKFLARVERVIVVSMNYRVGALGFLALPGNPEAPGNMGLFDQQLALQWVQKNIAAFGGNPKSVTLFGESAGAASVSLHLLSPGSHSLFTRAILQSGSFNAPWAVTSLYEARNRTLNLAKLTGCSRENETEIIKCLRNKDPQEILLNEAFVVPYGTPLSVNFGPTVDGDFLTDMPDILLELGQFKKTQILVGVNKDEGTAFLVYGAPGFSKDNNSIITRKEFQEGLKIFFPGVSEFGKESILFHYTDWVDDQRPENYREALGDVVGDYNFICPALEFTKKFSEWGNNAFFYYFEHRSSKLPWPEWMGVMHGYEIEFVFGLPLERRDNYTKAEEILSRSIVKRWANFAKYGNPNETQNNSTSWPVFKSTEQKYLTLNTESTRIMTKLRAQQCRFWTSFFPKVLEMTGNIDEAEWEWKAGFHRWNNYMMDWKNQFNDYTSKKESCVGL

O=C(CCN1CCCCC1)c1ccc(-c2ccc(C(=O)CCN3CCCCC3)cc2)cc1 [Compound 1-1]
Ki ([1]; Dixon plot, inhibitor 0.3, 1, 3 μM, five substrate concentrations, n = 3): 1810 ± 80 nM
type of inhibition of BuChE ([1]; Lineweaver-Burk plot): mixed-type
Ki ([2]; Dixon plot, inhibitor 0.1, 0.3, 1 μM, substrate 1.25-20 mM, n = 3): 1650 ± 140 nM
type of inhibition of AChE ([2]; Lineweaver-Burk plot): mixed-type
neuronal protection [3]: exerted neuronal protection
learning and memory dysfunction [4]: improved learning and memory dysfunction
Aβ deposits in cerebral cortices [5]: reduced Aβ deposits in cerebral cortices
